Drawing on US20210024483A1, “HETEROCYLCOALKENYL DERIVATIVES USEFUL AS AGONISTS OF THE GPR120 AND / OR GPR40” (Janssen Pharmaceutica NV, priority 2018, published 2021), this text covers EC50 for nine compounds.

For test [1], the target named is T1, short form of the GPR120 receptor (Homo sapiens, UniProt Q5NUL3).
T1 construct: host or cells: PathHunter CHO-K1 GPR120S beta-Arrestin Cell Line
T1 sequence (Q5NUL3 1-361): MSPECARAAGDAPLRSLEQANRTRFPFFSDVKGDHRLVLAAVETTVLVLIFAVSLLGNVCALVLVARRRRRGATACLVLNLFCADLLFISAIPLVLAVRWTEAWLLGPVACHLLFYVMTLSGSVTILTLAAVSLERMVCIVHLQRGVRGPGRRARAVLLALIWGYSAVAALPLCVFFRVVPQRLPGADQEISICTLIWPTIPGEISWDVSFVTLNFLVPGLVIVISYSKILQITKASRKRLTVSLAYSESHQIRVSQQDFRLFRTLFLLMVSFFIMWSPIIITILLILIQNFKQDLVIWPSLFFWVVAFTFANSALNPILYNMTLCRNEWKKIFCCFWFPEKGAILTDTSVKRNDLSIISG
The experiment in a line: Human GPR120 DiscoveRx PathHunter Beta-Arrestin Assay, Procedure B. The conditions noted are these: PathHunter CHO-K1 GPR120S cells, 5000 cells/well. Format: cell-based. From the text: Human GPR120 DiscoveRx PathHunter® Beta-Arrestin Assay
The binding of an agonist (medium/long chain fatty acids or small molecule agonists) to the G-protein-coupled receptor GPR120 activates phospholipase C, leading to release of intracellular Ca^+2 through the generation of inositol 1,4,5-trisphosphate (InsP3 or IP3). GPR120 activation can also trigger intracellular signaling via recruitment of Beta-Arrestin. In the present method, agonist-induced activation of the human GPR120 receptor is monitored through the use of PathHunter® CHO-K1 GPR120 Beta-Arrestin Cell Line engineered by DiscoveRx, as detailed below. The cell lines were designed to co-express both the ProLink/Enzyme Donor (PK)-tagged GPCR and the Enzyme […] (EA)-tagged Beta-Arrestin fusion proteins. Upon GPR120 receptor stimulation/activation, the EA-tagged Beta-Arrestin portion is translocated to the tagged receptor, where the two enzyme fragments are brought within close proximity. Under these conditions, these fragments can interact and form an active Beta-gal enzyme complex through Enzyme Fragment Complementation (EFC). This active Beta-gal complex can enzymatically hydrolyse the substrate to produce a detectable light signal; therefore, activation as a function of agonist concentration can be expressed as an EC50 value to determine relative compound activities. This in vitro assay therefore serves to assess compound agonist activity of the GPR120.
In Procedure β-arrestin B the cells used were PathHunter® CHO-K1 GPR120S β-Arrestin Cell Line, expressing the short form of the GPR120 receptor (Accession #[…]), with 5000 cells/well.
The selected CHO-K1 GPR120 β-Arrestin cells were cultured in Ham's F12 media supplemented with 10% fetal bovine serum (FBS), 1% Glutamine, 1× p/s, 800 μg/mL G418 and 300 μg/mL Hygromycin B (for selection). Cell stocks were maintained and grown in a sub-confluent state using standard cell culture procedures. The day before the experiment, the cells were harvested with non-enzymatic cell dissociation buffer and re-suspended in complete growth media at the desired concentration. A Corning 384-plate was then seeded with the proper number of cells in a volume of 25 μL, per well. The seeded plates were incubated overnight at 37° C.
On the day of the experiment, the Assay Buffer containing (a) HBSS with Ca^++ and Mg^++, (b) 20 mM HEPES, and (c) 0.1% BSA stabilizer (pH 7.4) was prepared. The growth medium was gently removed from the cell plates and 20 μL of Assay Buffer added to each well. The plate was then incubated at 37° C. for 60 min. Test compounds were serially diluted in Assay Buffer to desired concentrations (more particularly to one or more of the following μM concentrations: 25, 12.5, 6.25, 3.12, 1.56, 0.78, 0.39, 0.19, 0.10, 0.05, 0.02, 0.01). Five μL of compound dilution was then added to each well and the plate incubated at 37° C. for 90 min. The detection reagents were prepared according to the manufacture's instruction. Twelve μL of the detection reagents were added to each well and the plate incubated at room temperature for 60 min.
The plates were read on an EnVision instrument, using Protocol name: Luminescence, Plate type: 384 Costar, Measurement height: 3 mm, Measurement time: 1 s, Aperture: 384 Plate aperture. The % Activity relative to the positive control was calculated using the following equation:
The % Activity values were plotted versus the concentration of test compound and fitted to a sigmoidal dose-response curve with a Hill slope=1 (fixed value) using nonlinear regression with GraphPad Prism 5.0 to calculate the EC50 values. The Fitting Equation was: Y=Bottom+(Top−Bottom)/(1+10^((Log EC50−X)*HillSlope)), where X is the log of the concentration and Y is the response.

Test [2] has as its target T2, Human GPR120 short form (short splice variant, NM_001195755.1) (Homo sapiens, UniProt Q5NUL3).
T2 construct: expressed in transfected cells; host or cells: HEK293
T2 sequence (Q5NUL3 1-361): T1 sequence (Q5NUL3 1-361)
The experiment in a line: Human GPR120 Calcium Flux Assay. Format: cell-based. The conditions noted are these: HEK-293 cells, 4200 cells/well, read-out: Human GPR120 Calcium Flux Assay Procedure B EC50. The text has this: In Vitro Assay: Human GPR120 in Calcium Flux Assay
This in vitro assay serves to assess test compound agonist activity against the short splice variant (SVS with Accession number NM_001195755.1 confirmed by sequencing data) of the GPR120 receptor. The Human Short splice variant #2 (NM_001195755.1) is missing an in-frame coding exon compared to variant 1 (the Human Long splice variant NM_181745.3), resulting in a shorter isoform (GPR120-S) lacking a 16 aa protein segment compared to isoform GPR120-L. The assay platform utilizes HEK-293 cells stably transfected to express the Human GPR120 short form. These cells are first loaded with the Ca^+2 sensitive dye, Fluo-4 NW. Upon stimulation, intracellular released Ca^+2 can bind to the dye and alter its fluorescence intensity. This increase in fluorescence signal, and thus the flux in intracellular [Ca^2+], is detected and quantitated by fluorescence imaging using a FLIPR reader. The effect of the agonist is measured as a function of concentration and used to calculate an EC50 based upon a response curve. […]
In this procedure 4200 cells/well were employed.
A Human GPR120 clone (Genbank accession number NM_001195755.1) was placed into the pcDNA3.1 mammalian expression vector carrying the neomycin resistance gene. A stable mammalian cell was generated by placing the above clone into a HEK293 background. Clonal cells responding to long chain fatty acids had expression levels of GPR120 confirmed by RT-qPCR. Human HEK-GPR120 cells were cultured in Dulbecco's Modified Eagle's Medium (DMEM)/F12 medium supplemented with 10% fetal bovine serum (FBS), 1% L-Glutamine and 1% penicillin/streptomycin and 0.5 mg/ml G-418. Cells were split 2 times a week to keep the cells in the log-phase growth.
In preparation for the assay, HEK cells stably transfected with Human GPR120 (2.5K cells per well in 25 uL growth medium) were seeded into 384-well plates and then incubated overnight (37° C., 5% CO2). The next day, the media was changed to 20 μL assay buffer and the cell starved for 1 h at 37° C. The dye loading solution (2× dye) was prepared using 10 mL assay buffer, 100 μL of 250 mM probenecid, 1 bottle of Component A, and 20 μl of dye in DMSO. Twenty μL of the 2× dye loading buffer was then added to each well. The plates were incubated at 37° C. for 30 min, then at room temperature for an additional 15 minutes, before performing the assay on FLIPR.
The assay was performed on a FLIPR plate reader using the following parameters. Baseline was read for 10 seconds at 1 sec intervals. The program was set to transfer 10 μL of ligand from compound plate to cell plate after baseline reading. Aspiration was executed at: 10 μL/sec speed, 4.6 μL height; Dispensing was executed at: 30 μL/sec speed, 45 μL height. After compound addition, each well was read for 300 sec, with measurements collected at 1 sec intervals.
The kinetic data from the FLIPR was based upon a 5 minute window for data collection. The fluorescence of each sample well was used for individual calculations of a normalized RFU value, which was defined as maximum response minus the minimum response. The normalized fluorescence reading (RFU) was calculated as follows:
The data were fitted to a sigmoidal dose-response curve with a variable Hill slope (<2) using nonlinear regression with GraphPad Prism 5.0 to calculate the EC50 values. The Fitting Equation was: Y=Bottom+(Top−Bottom)/(1+10^((Log EC50−X)*HillSlope)), where X is the log of the concentration and Y is the response.

SMILES strings stand for the structures.

The term EC50 denotes the concentration needed to bring the measured effect to its halfway point.

On to `COc1ccc(C2=C(COc3ccc(CCC(=O)O)c(C)c3C)COCC2)cc1` [compound 647], for which the EC50 in test [1] is 740 nM; in test [2], > 5000 nM.
With `O=C(O)CCc1cc(F)c(OCC2=C(c3ccc(Cl)cc3)CCOC2)c(F)c1` [compound 642], the values for the EC50 in test [1] and in test [2] were 623 nM and 176 nM, respectively.
In the case of `Cc1cc(CCC(=O)O)ccc1OCC1=C(c2ccc(Cl)cc2)CCOC1` [compound 645], the EC50 in test [1] turned out to be 275 nM; in test [2] it was 269 nM.
On the same counts, the results for `Cc1c(CCC(=O)O)ccc(OCC2=C(c3ccc(F)c(F)c3)CCOC2)c1C` [compound 658] are 169 nM and 142 nM.
In the same order, the values of `O=C(O)CCc1ccc(OCC2=C(c3ccc(Cl)cc3)CCOC2)cc1C(F)(F)F` [compound 646] are 3650 nM and 628 nM.
Take `Cc1cc(CCC(=O)O)ccc1OCC1=C(c2ccc(Cl)cc2)COCC1` [compound 753]: the EC50 in test [1] was 296 nM; in test [2], 178 nM.
Consider `Cc1cc(CCC(=O)O)ccc1OCC1=C(c2ccc(F)cc2)CSC1` [compound 625], for which the EC50 in test [1] stood at 110 nM; in test [2], 124 nM.
Turning to `Cc1c(CCC(=O)O)ccc(OCC2=C(c3ccc(Cl)cc3)CCOC2)c1C` [compound 641], the figures for the EC50 in test [1] and in test [2] were 204 nM and 172 nM, respectively.
In the same order, the values of `Cc1c(CCC(=O)O)ccc(OCC2=C(c3ccc(F)cc3)CCOC2)c1C` [compound 650] are 658 nM and 316 nM.
